Entries after “also recorded” stand apart in the source; their conditions may differ.

Here are results for 1 substance from article PMC2652713, “Molecular Blocking of CD23 Supports Its Role in the Pathogenesis of Arthritis” (PLoS ONE, 2009).

One experiment has as its system human CD23. Briefly: Flow cytometry, inhibition of IgE/anti-IgE-FITC binding to human CD23+ macrophages. Conditions: p30A 10 µg/ml pre-incubation, IgE 10 µg/ml, anti-IgE-FITC 1 µg/ml. The procedure: Figure 1 Specific blockade of CD23 reactivity by p30A. Flow cytometry analysis showing the inhibition of (A) anti-CD23-FITC (20 µg/ml) or (B) IgE (10 µg/ml)/anti-IgE-FITC (1 µg/ml) binding to CD23^+ human PBL-derived macrophages (red lines) or following their pre-incubation with p30A peptides (10 µg/ml) (blue lines). (C) CD23 western blot was performed on total protein extract from à CD23^+ B-cell line. The detection with CD23-McAb followed the pre-incubation of the blot with or without p30A (10 µg/ml). Similar protein quantity (50 µg) was used for each western blot condition.
On the technique in general: Flow cytometry measures light scatter and fluorescence of single cells or particles in a stream.

Experiment [1] relates to iNOS mRNA in human CD23+ monocyte-derived macrophages. Briefly: iNOS mRNA expression (RT-PCR) in CD23-activated human macrophages. It counts as cell-based. Conditions: CD23-McAb 20 µg/ml, 1 h pre-incubation with 10 µg/ml peptide, versus HPRT mRNA. The procedure: (§1) Figure 2 Inhibition of CD23-mediated activation of iNOS pathway in human macrophages by p30A. Human CD23^+ monocyte-derived macrophages were incubated with cross-linking CD23-McAb (20 µg/ml) alone or following 1 h pre-incubation with 10 µg/ml of various peptides. […] Expression of iNOS mRNA was compared to HPRT mRNA levels. (B) Inhibition of NO generation from human activated macrophages by synthetic peptides. Cell supernatants were collected 72 h following cell cultures and levels of nitrites were determined. […] Results are expressed as mean of 3 distinct donor cell preparations (SEM<20%). (C) Inducible NOS-mediated NO generation in human macrophages is decreased following pre-incubation with p30A or L-NIL prior to CD23-mediated activation. Results are expressed as mean±s.d. of 7 distinct donor cell preparations.
Monocytes or macrophages were activated through CD23 pathway: while monocytes/macrophages from RA patients express CD23, monocytes from healthy donors must be pre-activated to express surface CD23 as described. […] Cells supernatants were then analyzed for their nitric oxide content (see below) and for the presence of cytokines: levels of TNF-α and IL-6 were determined in duplicates for each sample by a specific ELISA (R&D, Paris, France) while levels of IL-1β, IL-8 and IL-10 was determined using FlowCytomix Human Th1/Th2 Kit as recommended (Bender Medsystems, Vienna, Austria). […]

The test system of experiment [2] is human CD23+ monocyte-derived macrophages. Briefly: Nitrite (NO) generation by CD23-activated human macrophages, Griess reaction. It counts as cell-based. As to the method:
as §1
(§2) Monocytes or macrophages were activated through CD23 pathway: while monocytes/macrophages from RA patients express CD23, monocytes from healthy donors must be pre-activated to express surface CD23 as described. This pre-activation was obtained by incubation of healthy monocytes with recombinant human IL-4 (20 ng/ml) during 48 h at 37°C; After washing, all cell populations were tested by flow cytometry for their surface CD23 expression (>80% CD23^+) and then incubated in the presence of cross-linking CD23-MAb (clones 135 or DM2, IgG1k, 20 µg/ml) during 48–72 h, or IgE and anti-IgE as described, [17]. When indicated, peptides were added to the cells 2 h prior to their activation. Cells supernatants were then analyzed for their nitric oxide content (see below) and for the presence of cytokines: levels of TNF-α and IL-6 were determined in duplicates for each sample by a specific ELISA (R&D, Paris, France) while levels of IL-1β, IL-8 and IL-10 was determined using FlowCytomix Human Th1/Th2 Kit as recommended (Bender Medsystems, Vienna, Austria).
Culture supernatants (72 h) were assayed for the stable end-product of NO, NO2 ^− using the Griess reaction modified as detailed elsewhere. Inhibitory analog of L-arginine, L-NIL (N(6)-(1-iminoethyl)-L-lysine/2HCl, Coger SA, Paris, France) was used to inhibit iNOS-mediated NO generation. This method gave a sensitivity limit of 0.2 µM if low NO2 ^− medium (DMEM) was used. Total RNA was isolated as above from peritoneal macrophages. Reverse transcription-PCR was performed with an automatic thermal cycler (iCycler, Biorad) using the following specific primers: iNOS mRNA sense (5′-[…]-3′, exon 8) and iNOS mRNA antisense (5′-[…]-3′, exon 11). Hypoxanthine phosphoribosyltransferase (HPRT) mRNA sense (5′-[…]-3′) and HPRT mRNA antisense (5′-[…]- 3′) primers were used as controls. The iNOS messenger is represented by a 371-bp band, whereas a 496-bp band indicates the HPRT messenger.
A general note: The Griess reaction detects nitrite, a stable product of nitric oxide.

Experiment [3] has as its system healthy human PBL-derived macrophages. Briefly: Inflammatory mediator release from healthy human PBL-derived macrophages. It counts as cell-based. The procedure: Figure 4 Inhibition of inflammatory mediator generation from healthy human PBL-derived macrophages by p30A. Decreased levels of TNF-α (A), IL-6 (B), IL-1β, IL-8 and IL-10 (C) were detected in CD23-activated cells after incubation with p30A. […] Values are mean±s.d. of cells from 5 (IL-6, TNF-α) or 2 (IL-1β, IL-8, IL-10) different donors.
as §2

Experiment [4] relates to rat peritoneal macrophages. Briefly: NO generation by IgE/DNP-activated rat peritoneal macrophages. It counts as cell-based. As to the method:
Figure 6 Inhibition of in vitro and in vivo inflammatory responses in rats by p30A peptide. (A) Rat peritoneal macrophages were activated via CD23 antigens with/without p30A, L-NIL or pCtl. Cell supernatants were collected 48 h later and nitrite levels were quantified. Values are mean±s.d. of cells from 3 different rats. (B) Cumulative clinical score/rat obtained following 50 days post-immunization in all groups. AIA rats were treated either after or before (d0) the onset of symptoms. Treatment consisted of p30A, hydrocortisone (HC, 30 mg/rat)) or pCtl (100 mg/rat). Shown are means of cumulative score/rat±s.d. from 5 (HC) or 8 rats (other conditions). (C) Evolution of arthritis severity scores of adjuvant-induced arthritis (AIA) in rats treated with intracutaneous p30A or pCtl (100 mg/rat) or hydrocortisone (after the onset of clinical signs as illustrated by arrows (means from 8 rats, s.e.m.<20%). (D) Histopathologic analysis confirm p30A ability to decrease all components of AIA lesions: pannus formation and inflammation of the synovium (P), deformity of joint and bones (asterix), bone remodeling and destruction (arrowhead), bone neoformation (arrows) and cartilage destruction.
Culture supernatants (72 h) were assayed for the stable end-product of NO, NO2 ^− using the Griess reaction modified as detailed elsewhere. […]

Where [5] appears, read: FlowCytomix, mean±s.d., 2 donors.

For FHENWPS [p30A], the “block of IgE/anti-IgE-FITC binding” value in the experiment with human CD23 is reported as “block, on the one hand, the binding of IgE/anti-IgE-FITC to human CD23^+ macrophages”. Besides, the “iNOS-encoding mRNA level” value in experiment [1] is “reduced the levels of inducible nitric oxide synthase (iNOS)-encoding mRNA; also recorded: decreased in cells pre-incubated with p30A”. In experiment [2] (CD23-McAb 20 µg/ml, 1 h pre-incubation with peptide, supernatants at 72 h, mean of 3 donors (SEM<20%)), the “NO (nitrite) generation, dose-dependence” value is “reversed by p30A in a dose-dependent manner; also recorded: Dose-dependent reduction of nitrites”. Further, the “iNOS-mediated NO generation” value in experiment [2] (pre-incubation prior to CD23-mediated activation, mean±s.d. of 7 donors (Figure 2C)) is given as “decreased”. For the same substance, in experiment [3] (ELISA, mean±s.d., 5 donors), the IL-6 level result is “Decreased” and the TNF-α level result was “Decreased”. Besides, in experiment [3] (setting [5]), the IL-1β level result is reported as “Decreased”, the IL-8 level result is “Decreased” and the IL-10 level entry was “Decreased”. Further, the “inhibition of CD23-mediated inflammatory mediators at protein level” value in experiment [3] (TNF-α, IL-6, IL-1β, IL-8 and IL-10 in supernatants) is on record as “significantly inhibited all CD23-mediated activation of inflammatory mediators at protein levels”. In addition, in experiment [4] (rat macrophages ex-vivo), the “reversal of IgE/DNP activation” value was “able to reverse the IgE/DNP activation of rat macrophages ex-vivo”. The “CD23-mediated induction of NO generation” value in experiment [4] (rat peritoneal macrophages, IgE/DNP, peptide 1 h prior, supernatants at 48 h, 3 rats) was “significant decrease in CD23-mediated induction of NO generation”.
